{"source": "PubChem BioAssay AID1963968", "about": "(Molecular Pharmacology Branch, DTP, NCI, 2024)", "system": "945468-187-T-J3-PDC spheroids with HUVEC/MSC, viability", "assay": "Anticancer human tumor 945468-187-T-J3-PDC patient-derived rectal carcinoma cell line growth inhibition [PI3K]", "settings": "for pIC50: curve of first compound; for viability, T/C: stronger effect = lower value", "outline": "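We assembled tumor spheroids that included a stromal compartment of HUVEC and MSCs, then exposed them to targeted agents alone and together with PI3K pathway inhibitors. Concentration series descended by half-log from clinically achievable Cmax levels. Viability served as the endpoint.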", "key": {"[1]": {"settings": "second compound 0.00316 µM, first compound 0.0316 µM"}, "[2]": {"settings": "second compound 0.00316 µM, first compound 0.1 µM"}, "[3]": {"settings": "second compound 0.00316 µM, first compound 0.316 µM"}, "[4]": {"settings": "second compound 0.00316 µM, first compound 1 µM"}, "[5]": {"settings": "second compound 0.00316 µM, first compound 3.16 µM"}, "[6]": {"settings": "second compound 0.00316 µM, first compound 10 µM"}, "[7]": {"settings": "second compound 0.01 µM, first compound 0.0316 µM"}, "[8]": {"settings": "second compound 0.01 µM, first compound 0.1 µM"}, "[9]": {"settings": "second compound 0.01 µM, first compound 0.316 µM"}, "[10]": {"settings": "second compound 0.01 µM, first compound 1 µM"}, "[11]": {"settings": "second compound 0.01 µM, first compound 3.16 µM"}, "[12]": {"settings": "second compound 0.01 µM, first compound 10 µM"}, "[13]": {"settings": "second compound 0.0316 µM, first compound 0.0316 µM"}, "[14]": {"settings": "second compound 0.0316 µM, first compound 0.1 µM"}, "[15]": {"settings": "second compound 0.0316 µM, first compound 0.316 µM"}, "[16]": {"settings": "second compound 0.0316 µM, first compound 1 µM"}, "[17]": {"settings": "second compound 0.0316 µM, first compound 3.16 µM"}, "[18]": {"settings": "second compound 0.0316 µM, first compound 10 µM"}, "[19]": {"settings": "second compound 0.1 µM, first compound 0.0316 µM"}, "[20]": {"settings": "second compound 0.1 µM, first compound 0.1 µM"}, "[21]": {"settings": "second compound 0.1 µM, first compound 0.316 µM"}, "[22]": {"settings": "second compound 0.1 µM, first compound 1 µM"}, "[23]": {"settings": "second compound 0.1 µM, first compound 3.16 µM"}, "[24]": {"settings": "second compound 0.1 µM, first compound 10 µM"}, "[25]": {"settings": "second compound 0.316 µM, first compound 0.0316 µM"}, "[26]": {"settings": "second compound 0.316 µM, first compound 0.1 µM"}, "[27]": {"settings": "second compound 0.316 µM, first compound 0.316 µM"}, "[28]": {"settings": "second compound 0.316 µM, first compound 1 µM"}, "[29]": {"settings": "second compound 0.316 µM, first compound 3.16 µM"}, "[30]": {"settings": "second compound 0.316 µM, first compound 10 µM"}, "[31]": {"settings": "second compound 1 µM, first compound 0.0316 µM"}, "[32]": {"settings": "second compound 1 µM, first compound 0.1 µM"}, "[33]": {"settings": "second compound 1 µM, first compound 0.316 µM"}, "[34]": {"settings": "second compound 1 µM, first compound 1 µM"}, "[35]": {"settings": "second compound 1 µM, first compound 3.16 µM"}, "[36]": {"settings": "second compound 1 µM, first compound 10 µM"}}, "note": "pIC50: −log10 of the molar value."}
{"compound": "C[C@@H](NC(=O)c1ncnc(N)c1Cl)c1ncc(C(=O)Nc2cc(C(F)(F)F)c(Cl)cn2)s1", "note": "+ CC(Nc1ccc2c(c1)OCCn1cc(N3C(=O)OCC3C(F)F)nc1-2)C(N)=O;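 note: spheroids exposed to agents for 7 days before viability read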;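 for viability, T/C: 100% = DMSO vehicle control viability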", "values": [{"measurement": "pIC50", "setting": "second compound 0.00316 µM", "value": "< 5.00"}, {"measurement": "pIC50", "setting": "second compound 0.01 µM", "value": "< 5.00"}, {"measurement": "pIC50", "setting": "second compound 0.0316 µM", "value": "< 5.00"}, {"measurement": "pIC50", "setting": "second compound 0.1 µM", "value": "< 5.00"}, {"measurement": "pIC50", "setting": "second compound 0.316 µM", "value": "< 5.00"}, {"measurement": "pIC50", "setting": "second compound 1 µM", "value": "< 5.00"}, {"measurement": "viability, T/C", "setting": "[1]", "value": 97.2, "unit": "%"}, {"measurement": "viability, T/C", "setting": "[2]", "value": 97.5, "unit": "%"}, {"measurement": "viability, T/C", "setting": "[3]", "value": 116, "unit": "%"}, {"measurement": "viability, T/C", "setting": "[4]", "value": 91.5, "unit": "%"}, {"measurement": "viability, T/C", "setting": "[5]", "value": 111, "unit": "%"}, {"measurement": "viability, T/C", "setting": "[6]", "value": 92, "unit": "%"}, {"measurement": "viability, T/C", "setting": "[7]", "value": 94.7, "unit": "%"}, {"measurement": "viability, T/C", "setting": "[8]", "value": 110, "unit": "%"}, {"measurement": "viability, T/C", "setting": "[9]", "value": 101, "unit": "%"}, {"measurement": "viability, T/C", "setting": "[10]", "value": 88.4, "unit": "%"}, {"measurement": "viability, T/C", "setting": "[11]", "value": 90.8, "unit": "%"}, {"measurement": "viability, T/C", "setting": "[12]", "value": 98.4, "unit": "%"}, {"measurement": "viability, T/C", "setting": "[13]", "value": 94.4, "unit": "%"}, {"measurement": "viability, T/C", "setting": "[14]", "value": 89.3, "unit": "%"}, {"measurement": "viability, T/C", "setting": "[15]", "value": 94.4, "unit": "%"}, {"measurement": "viability, T/C", "setting": "[16]", "value": 95.1, "unit": "%"}, {"measurement": "viability, T/C", "setting": "[17]", "value": 103, "unit": "%"}, {"measurement": "viability, T/C", "setting": "[18]", "value": 94.3, "unit": "%"}, {"measurement": "viability, T/C", "setting": "[19]", "value": 91.2, "unit": "%"}, {"measurement": "viability, T/C", "setting": "[20]", "value": 102, "unit": "%"}, {"measurement": "viability, T/C", "setting": "[21]", "value": 101, "unit": "%"}, {"measurement": "viability, T/C", "setting": "[22]", "value": 100, "unit": "%"}, {"measurement": "viability, T/C", "setting": "[23]", "value": 96.7, "unit": "%"}, {"measurement": "viability, T/C", "setting": "[24]", "value": 95.8, "unit": "%"}, {"measurement": "viability, T/C", "setting": "[25]", "value": 109, "unit": "%"}, {"measurement": "viability, T/C", "setting": "[26]", "value": 112, "unit": "%"}, {"measurement": "viability, T/C", "setting": "[27]", "value": 92.7, "unit": "%"}, {"measurement": "viability, T/C", "setting": "[28]", "value": 92.7, "unit": "%"}, {"measurement": "viability, T/C", "setting": "[29]", "value": 88.8, "unit": "%"}, {"measurement": "viability, T/C", "setting": "[30]", "value": 96.3, "unit": "%"}, {"measurement": "viability, T/C", "setting": "[31]", "value": 67.5, "unit": "%"}, {"measurement": "viability, T/C", "setting": "[32]", "value": 56.1, "unit": "%"}, {"measurement": "viability, T/C", "setting": "[33]", "value": 63.7, "unit": "%"}, {"measurement": "viability, T/C", "setting": "[34]", "value": 56.8, "unit": "%"}, {"measurement": "viability, T/C", "setting": "[35]", "value": 65.1, "unit": "%"}, {"measurement": "viability, T/C", "setting": "[36]", "value": 62.4, "unit": "%"}]}
{"compound": "Cn1ncc(Cl)c1-c1cc(C(=O)NC(CN)Cc2cccc(F)c2)sc1Cl", "note": "(centres undefined) + CC(Nc1ccc2c(c1)OCCn1cc(N3C(=O)OCC3C(F)F)nc1-2)C(N)=O", "values": [{"measurement": "pIC50", "setting": "second compound 0.00316 µM", "value": 5.27}, {"measurement": "pIC50", "setting": "second compound 0.01 µM", "value": 5.51}, {"measurement": "pIC50", "setting": "second compound 0.0316 µM", "value": 5.59}, {"measurement": "pIC50", "setting": "second compound 0.1 µM", "value": 5.74}, {"measurement": "pIC50", "setting": "second compound 0.316 µM", "value": 5.95}, {"measurement": "pIC50", "setting": "second compound 1 µM", "value": 6.71}, {"measurement": "viability, T/C", "setting": "[1]", "value": 100, "unit": "%"}, {"measurement": "viability, T/C", "setting": "[2]", "value": 99, "unit": "%"}, {"measurement": "viability, T/C", "setting": "[3]", "value": 83.8, "unit": "%"}, {"measurement": "viability, T/C", "setting": "[4]", "value": 80.8, "unit": "%"}, {"measurement": "viability, T/C", "setting": "[5]", "value": 58.9, "unit": "%"}, {"measurement": "viability, T/C", "setting": "[6]", "value": 38.1, "unit": "%"}, {"measurement": "viability, T/C", "setting": "[7]", "value": 107, "unit": "%"}, {"measurement": "viability, T/C", "setting": "[8]", "value": 107, "unit": "%"}, {"measurement": "viability, T/C", "setting": "[9]", "value": 100, "unit": "%"}, {"measurement": "viability, T/C", "setting": "[10]", "value": 86.2, "unit": "%"}, {"measurement": "viability, T/C", "setting": "[11]", "value": 48.5, "unit": "%"}, {"measurement": "viability, T/C", "setting": "[12]", "value": 38.2, "unit": "%"}, {"measurement": "viability, T/C", "setting": "[13]", "value": 118, "unit": "%"}, {"measurement": "viability, T/C", "setting": "[14]", "value": 99.6, "unit": "%"}, {"measurement": "viability, T/C", "setting": "[15]", "value": 82.4, "unit": "%"}, {"measurement": "viability, T/C", "setting": "[16]", "value": 62, "unit": "%"}, {"measurement": "viability, T/C", "setting": "[17]", "value": 47.6, "unit": "%"}, {"measurement": "viability, T/C", "setting": "[18]", "value": 35.1, "unit": "%"}, {"measurement": "viability, T/C", "setting": "[19]", "value": 96.6, "unit": "%"}, {"measurement": "viability, T/C", "setting": "[20]", "value": 89.5, "unit": "%"}, {"measurement": "viability, T/C", "setting": "[21]", "value": 81.8, "unit": "%"}, {"measurement": "viability, T/C", "setting": "[22]", "value": 55.8, "unit": "%"}, {"measurement": "viability, T/C", "setting": "[23]", "value": 43.9, "unit": "%"}, {"measurement": "viability, T/C", "setting": "[24]", "value": 25.9, "unit": "%"}, {"measurement": "viability, T/C", "setting": "[25]", "value": 96, "unit": "%"}, {"measurement": "viability, T/C", "setting": "[26]", "value": 87.8, "unit": "%"}, {"measurement": "viability, T/C", "setting": "[27]", "value": 57.5, "unit": "%"}, {"measurement": "viability, T/C", "setting": "[28]", "value": 55.6, "unit": "%"}, {"measurement": "viability, T/C", "setting": "[29]", "value": 38.5, "unit": "%"}, {"measurement": "viability, T/C", "setting": "[30]", "value": 23.3, "unit": "%"}, {"measurement": "viability, T/C", "setting": "[31]", "value": 89.4, "unit": "%"}, {"measurement": "viability, T/C", "setting": "[32]", "value": 55.2, "unit": "%"}, {"measurement": "viability, T/C", "setting": "[33]", "value": 45.4, "unit": "%"}, {"measurement": "viability, T/C", "setting": "[34]", "value": 32.9, "unit": "%"}, {"measurement": "viability, T/C", "setting": "[35]", "value": 33, "unit": "%"}, {"measurement": "viability, T/C", "setting": "[36]", "value": 19.6, "unit": "%"}]}
